Experimental findings from US20080096208A1, “BIOMARKERS FOR ASSESSING RESPONSE TO C-MET TREATMENT” (priority 2006, published 2008) are described below.

For one test, the system named is PC-3 cells. The test can be described thus: Micro array analysis of PC-3 cells stimulated by HGF. It counts as cell-based. An excerpt: In order to identify biomarkers for the HGF response and potential inhibition of this response by small molecule HGF receptor (c-met) inhibitors, a micro array analysis of PC-3 cells stimulated by HGF over a time course of 1 hr to 2 days was used. TAQMAN was employed to examine mRNA levels of VEGF, CD44, Fibronectin, and MMP-1, each of which has been shown by others to be induced by HGF. Briefly, RNA is isolated by lysis of cultured cells or homogenization of tumor tissue in a guanidine solution, Trireagent from Molecular Research Center, Inc. The RNA is purified by a Qiagen column methodology under conditions recommended by the manufacturer and DNAse treated. Specific levels of mRNAs for the indicated genes are determined by Real-Time PCR, Taqman analysis using probes and primers specific for the genes examined and purchased from Applied Biosystems and the SDS2.1 quantitation software. Quantitation is performed by comparison of the cycle number where the sample crosses a threshold value vs a standard curve made of a pool of the RNA samples. Normalization is performed by comparing the amount of specific mRNA to that of 18S RNA or GAPDH mRNA. […] This response was then evaluated upon administration of the c-met inhibitor, 3DP-669366. […] This analysis was then evaluated upon administration of the acylhydrazone series of c-met inhibitors, JNJ-28823184 and JNJ-38429274. […]

Test [1] concerns PC-3 prostate carcinoma cells. Put plainly: Taqman real-time PCR of marker mRNA levels in HGF-stimulated PC-3 cells. It counts as cell-based. An excerpt: In order to identify biomarkers for the HGF response and potential inhibition of this response by small molecule HGF receptor (c-met) inhibitors, a micro array analysis of PC-3 cells stimulated by HGF over a time course of 1 hr to 2 days was used. TAQMAN was employed to examine mRNA levels of VEGF, CD44, Fibronectin, and MMP-1, each of which has been shown by others to be induced by HGF. Briefly, RNA is isolated by lysis of cultured cells or homogenization of tumor tissue in a guanidine solution, Trireagent from Molecular Research Center, Inc. The RNA is purified by a Qiagen column methodology under conditions recommended by the manufacturer and DNAse treated. Specific levels of mRNAs for the indicated genes are determined by Real-Time PCR, Taqman analysis using probes and primers specific for the genes examined and purchased from Applied Biosystems and the SDS2.1 quantitation software. Quantitation is performed by comparison of the cycle number where the sample crosses a threshold value vs a standard curve made of a pool of the RNA samples. Normalization is performed by comparing the amount of specific mRNA to that of 18S RNA or GAPDH mRNA. […] This response was then evaluated upon administration of the c-met inhibitor, 3DP-669366. […] The kinetics of the induction and the amplitude of the mRNA levels differ between the cell lines examined. The micro-array analysis identified LDL Receptor 1 (LDL-R1) as another protein that is induced by HGF and whose level of expression is diminished by treatment of cells with a HGF receptor inhibitor. This analysis was then evaluated upon administration of the acylhydrazone series of c-met inhibitors, JNJ-28823184 and JNJ-38429274. In in vivo tumor xenografts, the biomarkers identified by examination of cell culture responses to c-met inhibitors are also modulated in the in vivo setting. In a U87MG tumor xenograft in nude mice, a decrease in the mRNA levels of CD44, VEGF, LDLR1, and Osteopontin was observed.
On the technique in general: Quantitative PCR measures a nucleic acid by following its amplification.

Setting [2] is: between 8 and 48 hours following HGF addition, p<0.01.

Take “HGF: hepatocyte growth factor (also known as scatter factor), ligand of the c-met receptor”: in the test on PC-3 cells, the “induction of LDL Receptor 1 (LDL-R1) by HGF” value was “induced”. The “induction of Fibronectin mRNA by HGF” value in test [1] is listed as “did not show a statistically significant induction”. Moreover, the “induction of VEGF mRNA by HGF” value in test [1] (between 8 and 48 hours following HGF addition, p<0.001) was “statistically significant induction”. Further, in test [1] (setting [2]), the “induction of CD44 mRNA by HGF” value was “statistically significant induction” and the “induction of MMP-1 mRNA by HGF” value is recorded as “statistically significant induction”.
